Each structure is given as a SMILES string. In brackets after ≈: the same amount, converted by molar mass. Several values for one entry are separate records, joined by “and”; a condition that tells them apart may be missing. Identical values can stand only once. Entries after “also recorded” stand apart in the source; their conditions may differ. Marks after values point to notes of the source that are not given here.

The subject of series [1] is S. aureus. Briefly: Antibacterial MIC, initial phenazine collection. The series is classed as cell-based. The settings on record: Staphylococcus aureus; initial discovery; read-out: MIC against S. aureus.
The test system of series [2] is S. epidermidis. The series is described as follows: Antibacterial MIC, initial phenazine collection. The series is classed as cell-based. As to conditions: Staphylococcus epidermidis; initial discovery; read-out: MIC against S. epidermidis.
In series [3] the test system is MRSA-1707. Briefly: MIC susceptibility assay (broth microdilution). As to conditions: 16 h; for MIC: Staphylococcus aureus, MRSA, read-out: MIC MRSA-1707, planktonic growth inhibition, 16 h, 37° C.
Description: (§1) (MIC values were further supported by spectrophotometric readings at OD600). The concentration range tested for each HP compound during this study was 0.05 to 50 μM. DMSO served as our vehicle and negative control in each microdilution MIC assay. DMSO was serially diluted with a top concentration of 0.5% v/v.
Series [4] concerns MRSA-44. Briefly: MIC susceptibility assay (broth microdilution). The settings on record: Staphylococcus aureus, 16 h, read-out: MIC MRSA-44. Background: In broth dilution the organism is exposed to a series of concentrations in liquid medium.
Description: as §1
The subject of series [5] is MRSE 35984. The series is described as follows: MIC susceptibility assay (broth microdilution). As to conditions: Staphylococcus epidermidis, MRSE, 16 h, read-out: MIC MRSE 35984.
Description: as §1
The subject of series [6] is E. faecalis OG1RF. The series is described as follows: MIC susceptibility assay (broth microdilution). As to conditions: Enterococcus faecalis, 16 h, read-out: MIC E. faecalis OG1RF.
Description: as §1
In series [7] the test system is Mtb CDC1551. The series is described as follows: microbe, parasite or virus in culture. As to conditions: Mycobacterium tuberculosis, CDC1551, 120 h. Type of series: cell-based, Mycobacterium tuberculosis.
The subject of series [8] is human red blood cells. Briefly: Hemolysis assay with red blood cells. The protocol:
Hemolysis assays are used to determine the membrane-lysis activity of a compound, which is of particular interest to this work as membrane-lysing agents (e.g., QACs) can eradicate biofilms.
Cytotoxicity Assay against HEK-293 Cells.^48 The viability of HEK-293 cells was assessed by the MTT assay. The cells were cultured in DMEM medium containing 10% fetal bovine serum and 100 U/mL penicillin and streptomycin. The cells (10^4 cells/well) were seeded onto a 96-well plate and maintained at 37° C. in a humidified incubator under 5% CO2 overnight. […] After incubation at 37° C. for 72 hours, 10 μL of MTT (5 mg/mL) in PBS was added to each well and incubated for 4 hours, followed by the aspiration of the medium. Dimethyl sulfoxide (DMSO, 100 μL) was then added to each well to dissolve the MTT in the wells, and the plate was agitated for 1 hour. The optical density (OD) was measured at 570 nm using a UV/vis microplate spectrophotometer (BioTek). The percent inhibition was calculated as follows: Inhibition (%)=(1−test OD570/non-treated OD570)×100%. The data were analyzed by Origin. Hemolysis Assay with Red Blood Cells. […] The washing was repeated three times with the buffer. In 96-well plate, test compounds were added to the buffer from DMSO stocks. […] The plate was then incubated for 1 hour at 37° C. After incubation, the plate was centrifuged for 5 minutes at 3,500 rpm before 80 μL of the supernatant was transferred to another 96-well plate to obtain an optical density (OD) read at 405 nm. DMSO served as the negative control (0% hemolysis) while Triton X served as the positive control (100% hemolysis) in these experiments. The percent hemolysis was calculated as (OD405 of the compound treated RBCs−OD405 DMSO control)/(OD405 Triton X treated RBCs−OD405 buffer) from three independent experiments.

The test system of series [9] is Mtb H37Ra. Briefly: MIC assay for Mtb H37Ra. The settings on record: seven days, 37° C.
The subject of series [10] is MRSA-1707 biofilms. Briefly: Calgary Biofilm Device (CBD) assay. As to conditions: Staphylococcus aureus, read-out: MRSA-1707 MBC.
Series [11] concerns HepG2 cells. The series is described as follows: Alamar Blue cytotoxicity assay, HepG2. As to conditions: read-out: Hep G2 Cytotox. (IC50), 24-h. On the technique in general: Alamar Blue is a resazurin reagent that responds to reducing activity.
Series [12] has as its system HeLa cells. The series is described as follows: LDH release assay for HeLa cytotoxicity. As to conditions: read-out: HeLa Cell Cytotox. (IC50), 24-h, tested at 25, 50 and 100 μM. In general terms: LDH in the medium is a marker of cell lysis.
Series [13] has as its system J774 MΦ. The series is described as follows: Alamar Blue cytotoxicity assay, J774 macrophages. The settings on record: read-out: J774 MΦ Cytotox. (IC50), 24-h.
Series [14] in a line: pKa determination by UV-vis spectroscopy. The series is classed as physicochemical. As to the method: (c) pKa determination of select HP analogues.^36 Dissociation constants (pKa) for select HP analogues were determined using UV-vis spectroscopy and the Henderson-Hasselbalch equation. Buffers were prepared using potassium phosphate monobasic (KH2PO4) and sodium phosphate dibasic ([…]) in a 1:1 solution of water:methanol to achieve a pH range of 4.07 to 9.66 (ammonium hydroxide was added to prepare buffer pH over 9.80). Compounds were added from 10 mM stock solutions in dimethyl sulfoxide (25 μL) to 1975 μL of each buffer to each evaluate analogue to yield a final compound concentration of 125 μM. Full spectral scans were performed from 200 to 800 nm in 2 nm increments to determine λmax values for the protonated phenol (HA) and the deprotonated phenolate species (A^−). The change in absorption at each determined λmax in relation to pH was monitored in each buffer and plotted as absorbance versus pH for each species. The pKa was first estimated by determining the pH of the point of intersection of the two linear curves. The visual estimation was confirmed by plotting pH versus log [A^−/HA]. The resulting plot yielded a linear regression line with a Y-intercept corresponding to a calculated pKa value.

Series [15] has as its system MRSE 35984 biofilms. The series is described as follows: Calgary Biofilm Device (CBD) assay. The settings on record: Staphylococcus epidermidis, MRSE, read-out: MRSE 35984 MBC.
The subject of series [16] is E. faecalis OG1RF biofilms. The series is described as follows: Calgary Biofilm Device (CBD) assay. The settings on record: Enterococcus faecalis, OG1RFBIOFILMS, read-out: E.faecalis OG1RF MBC.
Series [17] relates to isdB, sfaA, sbnC, MW0695 transcripts in MRSA-1707 biofilms. Briefly: RT-qPCR of iron uptake genes in MRSA biofilms. The settings on record: 4 h treatment at 1 μM or 1/10×MBEC.
For series [18] the test system is unchanged. The settings on record: at 5 μM, reported earlier; cited from earlier work.
Series [19] deals with MRSA 1. Briefly: MIC assay against clinical isolate. The settings on record: Staphylococcus aureus. The series is classed as cell-based, S. aureus.
Series [20] has as its system MRSA 2. Briefly: MIC assay against clinical isolate. The series is classed as cell-based, S. aureus. The settings on record: Staphylococcus aureus.
The subject of series [21] is S. aureus 129. The series is described as follows: MIC assay against clinical isolate. Type of series: cell-based. As to conditions: Staphylococcus aureus.
Series [22] concerns S. aureus 147. Briefly: MIC assay against clinical isolate. Type of series: cell-based. As to conditions: Staphylococcus aureus, 147; clinical isolate; read-out: MIC S. aureus 147.
Series [23] relates to S. aureus 138. Briefly: MIC assay against clinical isolate. Type of series: cell-based. As to conditions: Staphylococcus aureus.
Series [24] has as its system S. aureus 156. The series is described as follows: MIC assay against clinical isolate. The series is classed as cell-based. As to conditions: Staphylococcus aureus, 156, read-out: MIC S. aureus 156.
Series [25] deals with S. aureus strain ATCC 29213. The series is described as follows: MIC against methicillin-susceptible strain. Type of series: cell-based. The settings on record: Staphylococcus aureus, ATCC29213; strain susceptible to methicillin.
Series [26] relates to VRE 700221 biofilms. The series is described as follows: Calgary Biofilm Device (CBD) assay. As to conditions: Enterococcus, read-out: VRE 700221 MBC.

For the compound `Oc1c(Br)ccc2nc3ccccc3nc12` [Compound 1, 2-bromo-1-hydroxyphenazine, reference compound], the MIC amounted to 6.25 µM (≈ 1.72 µg/mL) in series [1]; 6.25 µM (≈ 1.72 µg/mL) in series [2]; 3.13 µM (≈ 0.861 µg/mL) in [3]; 3.13 µM (≈ 0.861 µg/mL) in series [4]; 3.13 µM (≈ 0.861 µg/mL) in series [5]; 18.8 µM (≈ 5.17 µg/mL) in [6].

Usually IC50 stands for the concentration needed to halve the response being measured. With `Oc1cc(Cl)cc2nc3c(Cl)cc(Cl)cc3nc12` [Compound 24, 3,6,8-Trichlorophenazin-1-ol], the MIC stood at 2.31 µM (≈ 0.692 µg/mL) in series [7] and 0.3 µM (≈ 0.0899 µg/mL) in series [4]. Further, the “% Hemolysis at 200 μM” value in [8] (human RBCs, 1 hour, 37° C.) is recorded as at most 1%. For the same compound, the “MIC Mtb H37Ra” value in series [9] was 3.13 µM (≈ 0.938 µg/mL). Besides, the MBC in series [10] turned out to be 18.8 µM (≈ 5.63 µg/mL). The IC50 in series [11] is over 200 µM; in series [12] it was over 100 µM; in series [13] it was over 200 µM.

The term pKa denotes the pH at which an ionisable group is half protonated. A higher pKa goes with a weaker acid or stronger base. For `Oc1c(Br)c(Cl)c(Br)c2nc3ccccc3nc12` [Compound 28, 2,4-Dibromo-3-chlorophenazin-1-ol], the MIC in [7] came to 4.37 µM (≈ 1.7 µg/mL); in [3] it was 0.15 µM (≈ 0.0583 µg/mL); in [6] it was 3.13 µM (≈ 1.22 µg/mL). In [8] (human RBCs, 1 hour, 37° C.), the “% Hemolysis at 200 μM” value is at most 1%. In series [14], the pKa turned out to be 5.93. The “MIC Mtb H37Ra” value in series [9] is 6.25 µM (≈ 2.43 µg/mL). Also, the MBC in [10] came out at 50 µM (≈ 19.4 µg/mL); in series [15], 12.5 µM (≈ 4.86 µg/mL); in series [16], 75 µM (≈ 29.1 µg/mL). Further, the values for the IC50 in [11], in series [12] and in [13] were over 200 µM, over 100 µM and over 200 µM, respectively. For the same compound, the “MIC MRSA-1707” value in series [3] (planktonic growth inhibition, 37° C.) was 0.15^a μM and 0.15 μM. Moreover, in series [17], the “iron starvation / up-regulation of iron uptake genes in MRSA-1707 biofilms” value was “induction of iron starvation; also recorded: up-regulating iron uptake genes; also recorded: induced rapid iron starvation; also recorded: rapidly induce iron starvation”.

By melting point is commonly meant the temperature of the solid-liquid transition. In turn, `Oc1c(Br)c(Br)c(Br)c2nc3ccccc3nc12` [Compound 150] showed a melting point of 222 to 224 °C. The MIC in series [3] was 0.1 µM (≈ 0.0433 µg/mL). The MIC in series [5] is 0.3 µM (≈ 0.13 µg/mL).

As for `O=C(O)CN(CCN(CC(=O)O)CC(=O)O)CC(=O)O` [EDTA, ethylenediaminetetraacetic acid, reference compound], the “% Hemolysis at 200 μM” value in series [8] (human, 1 h, pH 7.2) is given as at most 1%. Further, the “up-regulation of panel of iron uptake genes” value in series [18] is reported as “did not upregulate this panel of iron uptake genes”. For the same compound, the values for the MBC in series [10], in series [15] and in series [16] were over 2000 µM, 1000 µM (≈ 292 µg/mL) and over 2000 µM, respectively. Further, the MIC in [4] was determined as 125 µM (≈ 36.5 µg/mL); in series [6], 500 µM (≈ 146 µg/mL).

In the case of `COc1cccc(OC)c1C(=O)N[C@@H]1C(=O)N2[C@@H]1SC(C)(C)[C@@H]2C(=O)O` [Methicillin, reference compound], the MIC in series [19] is 37.5 µM (≈ 14.3 µg/mL); in series [20], over 100 µM; in series [21], 37.5 µM (≈ 14.3 µg/mL); in series [22] it was 6.25 µM (≈ 2.38 µg/mL); in series [23] it was 37.5 µM (≈ 14.3 µg/mL); in [24], 37.5 µM (≈ 14.3 µg/mL). Further, the MIC in series [25] was determined as 0.78 µM (≈ 0.297 µg/mL).

As for `c1ccc(CN(CCN(Cc2ccccn2)Cc2ccccn2)Cc2ccccn2)nc1` [TPEN, N,N,N′,N′-tetrakis(2-pyridinylmethyl)-1,2-ethanediamine, reference compound], the “% Hemolysis at 200 μM” value in [8] (human RBCs, 1 hour, 37° C.) is listed as at most 1%. Besides, the “up-regulation of panel of iron uptake genes” value in [18] is “did not upregulate this panel of iron uptake genes”. Besides, the MBC in [10] is 375 µM (≈ 159 µg/mL); in series [26], 188 µM (≈ 79.8 µg/mL); in [16], 500 µM (≈ 212 µg/mL). Besides, the MIC in series [3], in [4] and in series [6] was 46.9 µM (≈ 19.9 µg/mL) in each case.

Values taken from patent US12060334B2, “3-substituted phenazine derivatives as antimicrobial agents” (University of Florida Research Foundation, Incorporated, priority 2021, dated 2024).
